Here are results for 13 compounds from patent US20250136581A1, “SUBSTITUTED TRIAZOLE DERIVATIVE, PREPARATION METHOD THEREFOR, PHARMACEUTICAL COMPOSITION THEREOF, AND USE THEREOF” (SHANGHAI SIMR BIOTECHNOLOGY CO., LTD., priority 2021, published 2025).

The target of series [1] is human α5β3γ2 receptors (α5-GABAA receptor) (Homo sapiens (Human), UniProt P18507+P31644). As to the kind of experiment: 3H-flunitrazepam competition binding, human α5β3γ2 GABAA receptor. As to conditions: HEK293 cell membranes, 1 nM 3H-flunitrazepam; read-out: α5-GABAAR Ki. The method in brief:
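HEK293 membranes stably expressing each human receptor subtype ([…]) competed against 1 nM 3H-flunitrazepam in Tris buffer, 1 h at room temperature; flumazenil defined the low-signal control. Eight-point 4-fold test-compound dilutions; GF/C filtration and scintillation counting gave IC50 by curve fitting, converted to Ki.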

Series [2] deals with α5-GABAA receptor (α5, β3, γ2 subunits) (Homo sapiens (Human), UniProt P18507+P31644). Description: Whole cell patch clamp, inverse agonist efficacy in HEK293 cells expressing α5-GABAA receptor. The series is classed as cell-based. The settings on record: HEK293, drug 100 nM, GABA 0.05 μM, −60 mV; read-out: Compound inverse agonist efficacy %. The method in brief: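 Stable HEK293 line co-expressing human α5, β3, γ2 subunits; whole-cell patch clamp at −60 mV, inward current evoked by 0.05 μM GABA, then compound at 100 nM in GABA solution applied. Effect derived from leak, pre- and post-drug GABA currents.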

Series [3] is described as follows: Rat pharmacokinetic experiment. As to conditions: rat, po, 3 mg/kg; for Kp: male, SD, brain / plasma, read-out: B/P (proportion of compounds entering the brain); for Cmax: plasma, male SD rats. It counts as in vivo. On the procedure: The maximum plasma concentration (Cmax) in the rat pharmacokinetic experiment was used to evaluate the absorption of the compounds in rat in vivo. The experimental compound was dissolved and then orally administered by gavage (p.o.) to male SD rats. The rats were fasted overnight before drug administration, and blood was collected via venipuncture at 0.25, 0.5, 1, 2, 4, and 7 hours post dose. Approximately 100 μL blood was collected for each sample; at the same time, the whole brain was taken and homogenized with 3 times the amount of PBS for analysis. The […] method was used to determine drug concentrations in plasma and brain tissue, and the proportion of compounds entering the brain (B/P) was calculated based on the AUC of the compound. Pharmacokinetic parameters were calculated using Phoenix WinNonlin 7.0. The administration vehicle was 5% CMC-Na aqueous solution.

In the next series the target is human α2β3γ2 receptors (Homo sapiens (Human), UniProt P18507+P47869). Description: 3H-flunitrazepam competition binding, human α2β3γ2 GABAA receptor. As to conditions: HEK293 cell membranes, 1 nM 3H-flunitrazepam; read-out: Ki α2. On the procedure:
(§1) The affinity of the compound to each subtype of GABAA receptor was determined by competing for the binding of ^3H-flunitrazepam to HEK293 cells stably expressing human α1β3γ2, α2β3γ2, α3β3γ2, and α5β3γ2 receptors.
(§2) The cells were suspended in 50 mM Tris-HCl buffer (pH=7.4), homogenized 10 times on ice with a homogenizer for 20 seconds, and centrifuged at 1000 g for 10 minutes at 4° C. The supernatant was collected, and the above steps were repeated. The supernatant was centrifuged at 4° C. (33800 g; Thermo, rotor: A27-8×50) for 60 minutes, and the precipitate was resuspended in Tris buffer (50 mM Tris-HCl, 10 mM MgCl2, 0.5 mM EDTA, 10% glycerol). Protein was measured (BCA method, Pierce), and 1 mL aliquots were prepared and stored at −80° C.
(§3) The radioligand competition binding assay was performed in a 200 μL system (96-well plate) containing 100 μL of cell membrane. The concentration of ^3H-flunitrazepam was 1 nM and the concentration of the test compound was in the range of […]. Flumazenil was used as a control. 1 μL of 2 mM flumazenil (final concentration […]) was added to the low signal control well (Low control, LC), and 1 μL of DMSO was added to the high signal control well (High control, HC). The final concentration of target membrane protein was […]. All test compound sample storage solutions were 10 mM. The working concentration of the samples was to dilute all the samples to 0.2 mM with DMSO, followed by 4-fold serial gradient dilutions for a total of 8 concentration gradients. The 96-well plate was sealed with a sealing film, and then incubated on a shaker at room temperature for 1 hour. At the same time, the GF/C filter plate was soaked in soaking buffer (0.3% PEI, stored at 4° C.) for at least 0.5 hours. After the binding incubation was completed, the cells were collected onto a GF/C filter plate using a cell harvester. The plate was washed four times with washing buffer (50 mM Tris-HCl, pH 7.4, stored at 4° C.). After drying in a 50° C. oven for 1 hour, the bottom of the dried GF/C filter plate was sealed. The residual radioactivity on the filter membrane was detected using liquid scintillation counting. 50 μL of scintillation fluid was added to each well, and the plate was sealed. The readings were taken using a Microbeta2. The inhibitory activity of the test sample on the binding of ^3H-flunitrazepam to GABAA receptor membrane proteins was calculated, and the IC50 of each test sample was calculated by dose-effect curve fitting (GraphPad Prism 5 software), and the Ki of the sample was calculated from the IC50, thus evaluating the binding ability of the sample to the various subtypes of GABAA receptors.

For the next series, the target named is human α1β3γ2 receptors (Homo sapiens (Human), UniProt P14867+P18507). Description: 3H-flunitrazepam competition binding, human α1β3γ2 GABAA receptor. The settings on record: HEK293 cell membranes, 1 nM 3H-flunitrazepam; read-out: Ki α1. On the procedure: as §1, §2, §3
Another series has as its target human α3β3γ2 receptors (Homo sapiens (Human), UniProt P18507+P34903). Description: 3H-flunitrazepam competition binding, human α3β3γ2 GABAA receptor. The settings on record: HEK293 cell membranes, 1 nM 3H-flunitrazepam; read-out: Ki α3. The protocol:
as §1, §2, §3

Take `Cc1nnn(-c2ccc(C(F)F)cc2)c1COc1ccc(N2CCN(C3CC3)C(=O)C2)nn1` [Example 108, 1-Cyclopropyl-4-(6-((1-(4-(difluoromethyl)phenyl)-4-methyl-1H-1,2,3-triazol-5-yl)methoxy)pyridazin-3-yl)piperazin-2-one]: in series [1], the inhibition constant Ki amounted to 0.00166 µM. For the same compound, in series [2], the inhibition at 0.1 µM came out at 52.2%. In series [3], the Kp amounted to 0.0208 and the Cmax was 1780 ng/mL.

For `Cc1nnn(-c2ccc(C(F)F)cc2)c1COc1ccc(N2CC(C(=O)N3CCOCC3)C2)nn1` [Example 104, (1-(6-((1-(4-(Difluoromethyl)phenyl)-4-methyl-1H-1,2,3-triazol-5-yl)methoxy)pyridazin-3-yl)azetidin-3-yl)(morpholino)methanone], the Ki in series [1] was found to be 0.00177 µM. For the same compound, the inhibition at 0.1 µM in series [2] worked out at 49.9%. For the same compound, in series [3], the Kp was 0.0095 and the highest level (Cmax) was 3890 ng/mL.

As for `Cc1nnn(-c2ccc(C(F)F)cc2)c1COc1ccc(N2CCN3CCN(C4CC4)C(=O)[C@@H]3C2)nn1` [Example 148, (S)-2-Cyclopropyl-8-(6-((1-(4-(difluoromethyl)phenyl)-4-methyl-1H-1,2,3-triazol-5-yl)methoxy)pyridazin-3-yl)hexahydro-2H-pyrazino[1,2-a]pyrazin-1(6H)-one], the inhibition constant (Ki) in series [1] amounted to 0.0025 µM; at human α2β3γ2 receptors, 0.117 µM; at human α1β3γ2 receptors, 0.445 µM; at human α3β3γ2 receptors, 0.0562 µM. Further, the inhibition at 0.1 µM in series [2] came out at 42.6%.

Take `Cc1nnn(-c2ccc(C(F)F)cc2)c1COc1ccc(N2CC(=O)NC3(CC3)C2)nn1` [Example 8, 7-(6-((1-(4-(Difluoromethyl)phenyl)-4-methyl-1H-1,2,3-triazol-5-yl)methoxy)pyridazin-3-yl)-4,7-diazaspiro[2.5]octan-5-one]: the inhibitory constant (Ki) was 0.00089 µM in series [1], 0.0222 µM on human α2β3γ2 receptors, 0.0805 µM on human α1β3γ2 receptors and 0.017 µM at human α3β3γ2 receptors. Moreover, in series [2], the inhibition at 0.1 µM was found to be 40.4%.

For `Cc1nnn(-c2ccc(C(F)F)cc2)c1COc1ccc(N2CC(=O)NC(=O)C2)nn1` [Example 5, 4-(6-((1-(4-(Difluoromethyl)phenyl)-4-methyl-1H-1,2,3-triazol-5-yl)methoxy)pyridazin-3-yl)piperazine-2,6-dione], the Ki came out at 0.00096 µM in series [1], 0.0129 µM on human α2β3γ2 receptors, 0.0581 µM on human α1β3γ2 receptors and 0.0168 µM at human α3β3γ2 receptors. For the same compound, in series [2], the inhibition at 0.1 µM worked out at 54.5%.

With `Cc1nnn(-c2ccc(C(F)F)cc2)c1COc1ccc(N2CC(=O)N3CCNCC3C2)nn1` (stereo not drawn) [Example 68, 2-(6-((1-(4-(Difluoromethyl)phenyl)-4-methyl-1H-1,2,3-triazol-5-yl)methoxy)pyridazin-3-yl)hexahydro-1H-pyrazino[1,2-a]pyrazin-4-(6H)-one], the Ki amounted to 0.00084 µM in series [1], 0.0171 µM on human α2β3γ2 receptors, 0.0569 µM at human α1β3γ2 receptors and 0.014 µM at human α3β3γ2 receptors. The inhibition at 0.1 µM in series [2] came to 50.5%.

Take `Cn1nnc(-c2ccc(C(F)F)cc2)c1COc1ccc(N2CCNC(=O)C2)nn1` [Example 127, 4-(6-((4-(4-(Difluoromethyl)phenyl)-1-methyl-1H-1,2,3-triazol-5-yl)methoxy)pyridazin-3-yl)piperazin-2-one]: the Ki is 0.00208 µM in series [1], 0.0237 µM at human α2β3γ2 receptors, 0.4 µM at human α1β3γ2 receptors and 0.0367 µM at human α3β3γ2 receptors. In addition, in series [2], the inhibition at 0.1 µM came to 55%.

With `Cc1nnn(-c2ccc(C(F)F)cc2)c1COc1ccc(N2CCN3c4ccccc4NC(=O)[C@@H]3C2)nn1` [Example 122, (S)-3-(6-((1-(4-(Difluoromethyl)phenyl)-4-methyl-1H-1,2,3-triazol-5-yl)methoxy)pyridazin-3-yl)-2,trans-3,4,4a-tetrahydro-1H-pyrazino[1,2-a]quinoxalin-5(6H)-one], the Ki in series [1] turned out to be 0.00246 µM; on human α2β3γ2 receptors it was 0.149 µM; on human α1β3γ2 receptors, 0.266 µM; at human α3β3γ2 receptors, 0.0673 µM. Also, in series [2], the inhibition at 0.1 µM was found to be 48.7%.

For `Cc1nnn(-c2ccc(C(F)F)cc2)c1COc1ccc(N2CCN3CCNC(=O)[C@H]3C2)nn1` [Example 55, (R)-8-(6-((1-(4-(Difluoromethyl)phenyl)-4-methyl-1H-1,2,3-triazol-5-yl)methoxy)pyridazin-3-yl)hexahydro-2H-pyrazino[1,2-a]pyrazin-1(6H)-one], the inhibition constant (Ki) in series [1] was determined as 0.00039 µM; at human α2β3γ2 receptors it was 0.0564 µM; at human α1β3γ2 receptors it was 0.178 µM; on human α3β3γ2 receptors, 0.0275 µM. Also, in series [2], the inhibition at 0.1 µM worked out at 51.6%.

With `Cc1nnn(-c2ccc(F)cc2)c1COc1ccc(N2CCNC(=O)C2)nn1` [Example 76, 4-(6-((1-(4-Fluorophenyl)-4-methyl-1H-1,2,3-triazol-5-yl)methoxy)pyridazin-3-yl)piperazin-2-one], the Ki was 0.00287 µM in series [1], 0.301 µM at human α2β3γ2 receptors, 0.832 µM on human α1β3γ2 receptors and 0.173 µM on human α3β3γ2 receptors. In addition, the inhibition at 0.1 µM in series [2] worked out at 45.3%.

Consider `Cc1nnn(-c2ccc(C(F)F)cc2)c1COc1ccc(N2CCNC2=O)nn1` [Example 19, 1-(6-((1-(4-(Difluoromethyl)phenyl)-4-methyl-1H-1,2,3-triazol-5-yl)methoxy)pyridazin-3-yl)imidazolidin-2-one], for which the inhibitory constant (Ki) in series [1] is 0.00052 µM; at human α2β3γ2 receptors, 0.0104 µM; at human α1β3γ2 receptors, 0.0158 µM; on human α3β3γ2 receptors, 0.00734 µM. The inhibition at 0.1 µM in series [2] came to 53.7%.

Consider `Cc1nnn(-c2ccc(C(F)F)cc2)c1COc1ccc(N2CCN(CCN3CCCC3)C(=O)C2)nn1` [Example 61, 4-(6-((1-(4-(Difluoromethyl)phenyl)-4-methyl-1H-1,2,3-triazol-5-yl)methoxy)pyridazin-3-yl)-1-(2-(pyrrolidin-1-yl)ethyl)piperazin-2-one], for which the inhibition constant Ki in series [1] was determined as 0.00212 µM; at human α2β3γ2 receptors, 0.026 µM; on human α1β3γ2 receptors it was 0.126 µM; on human α3β3γ2 receptors it was 0.0131 µM. Besides, the inhibition at 0.1 µM in series [2] worked out at 49%.

Consider `Cc1nnn(-c2ccc(C(F)F)cc2)c1COc1ccc(N2C[C@H]3C[C@@H]2C(=O)N3)nn1` [Example 116, (1R,4R)-5-(6-((1-(4-(Difluoromethyl)phenyl)-4-methyl-1H-1,2,3-triazol-5-yl)methoxy)pyridazin-3-yl)-2,5-diazabicyclo[2.2.1]heptan-3-one], for which the Ki in series [1] was 0.00166 µM; on human α2β3γ2 receptors it was 0.0501 µM; on human α1β3γ2 receptors, 0.0652 µM; on human α3β3γ2 receptors, 0.0227 µM. Also, in series [2], the inhibition at 0.1 µM stood at 48.4%.

In general, Ki refers to a measure of affinity in units of concentration, obtained from inhibition or displacement. What is called Cmax is the peak of the concentration-time curve.
